Experimental data from patent US20120121591A1 (priority 2009, published 2012).
pIC50: −log10 of the molar value. Read-outs that look alike come from different tables or passages of the source.

Legend:
[1] = test system: IL-2 secretion from T cells in human whole blood; format: cell-based; conditions: for IC50: read-out: WB (IL-2) IC50 (nM, Avg)
[2] = test system: IFN-g secretion from T cells in human whole blood; format: cell-based
[3] = read-out: WB (IFNg) IC5- (nM, Avg)
[4] = read-out: WB (IFNg) IC50 (nM, Avg)

Fc.L20FcLoopShk (scFc): single-chain Fc with ShK inserted in the second Fc domain, 20-residue linker
pIC50 ([1]; read-out: In Vitro IC50, whole blood assay (inhibition of IL-2), average results): 8.70

CC[C@H](C)[C@@H]1NC(=O)[C@@H](NC(=O)[C@H](CO)NC(=O)[C@@H](N)CCCNC(=N)N)CSSC[C@@H](C(=O)O)NC(=O)[C@H]([C@@H](C)O)NC(=O)CNC(=O)[C@@H]2CSSC[C@@H]3NC(=O)[C@H](CCC(N)=O)NC(=O)[C@H](Cc4ccccc4)NC(=O)[C@H](C)NC(=O)[C@H]([C@@H](C)O)NC(=O)[C@H](CSSC[C@H](NC(=O)[C@H](Cc4ccccc4)NC(=O)[C@H](CO)NC(=O)[C@H](CC(C)C)NC(=O)[C@H](CCCNC(=N)N)NC(=O)[C@H](Cc4ccc(O)cc4)NC(=O)[C@H](CCCCN)NC(=O)[C@H](CCSC)NC(=O)[C@H](CO)NC(=O)[C@H](Cc4c[nH]cn4)NC(=O)[C@H](CCCCN)NC3=O)C(=O)N[C@@H](CCCNC(=N)N)C(=O)N[C@@H](CCCCN)C(=O)N[C@@H]([C@@H](C)O)C(=O)N2)NC(=O)[C@H](CCCCN)NC(=O)[C@H](CO)NC(=O)[C@H](CCCCN)NC(=O)[C@@H]2CCCN2C(=O)[C@H]([C@@H](C)CC)NC(=O)[C@H]([C@@H](C)O)NC(=O)[C@H](CC(=O)O)NC1=O [[Lys11]ShK]
IC50 [1]: 0.095 nM

CC[C@H](C)[C@@H]1NC(=O)[C@@H](NC(=O)[C@H](CO)NC(=O)[C@@H](N)CCCNC(=N)N)CSSC[C@@H](C(=O)O)NC(=O)[C@H]([C@@H](C)O)NC(=O)CNC(=O)[C@@H]2CSSC[C@@H]3NC(=O)[C@H](CCC(N)=O)NC(=O)[C@H](Cc4ccccc4)NC(=O)[C@H](C)NC(=O)[C@H]([C@@H](C)O)NC(=O)[C@H](CSSC[C@H](NC(=O)[C@H](Cc4ccccc4)NC(=O)[C@H](CO)NC(=O)[C@H](CC(C)C)NC(=O)[C@H](CCC(=O)O)NC(=O)[C@H](Cc4ccc(O)cc4)NC(=O)[C@H](CCCCN)NC(=O)[C@H](CCSC)NC(=O)[C@H](CO)NC(=O)[C@H](Cc4c[nH]cn4)NC(=O)[C@H](CCCCN)NC3=O)C(=O)N[C@@H](CCCNC(=N)N)C(=O)N[C@@H](CCCCN)C(=O)N[C@@H]([C@@H](C)O)C(=O)N2)NC(=O)[C@H](CCCNC(=N)N)NC(=O)[C@H](CO)NC(=O)[C@H](CCCCN)NC(=O)[C@@H]2CCCN2C(=O)[C@H]([C@@H](C)CC)NC(=O)[C@H]([C@@H](C)O)NC(=O)[C@H](CC(=O)O)NC1=O [[Glu24]ShK]
IC50 [2, 3]: 4.07 nM

CC[C@H](C)[C@@H]1NC(=O)[C@@H](NC(=O)[C@H](CO)NC(=O)[C@@H](N)CCCNC(=N)N)CSSC[C@@H](C(=O)O)NC(=O)[C@H]([C@@H](C)O)NC(=O)CNC(=O)[C@@H]2CSSC[C@@H]3NC(=O)[C@H](CCC(N)=O)NC(=O)[C@H](Cc4ccccc4)NC(=O)[C@H](C)NC(=O)[C@H]([C@@H](C)O)NC(=O)[C@H](CSSC[C@H](NC(=O)[C@H](Cc4ccccc4)NC(=O)[C@H](CO)NC(=O)[C@H](CC(C)C)NC(=O)[C@H](CCCNC(=N)N)NC(=O)[C@H](Cc4ccc(O)cc4)NC(=O)[C@H](CCCCN)NC(=O)[C@H](CCSC)NC(=O)[C@H](CO)NC(=O)[C@H](Cc4c[nH]cn4)NC(=O)[C@H](CCCCN)NC3=O)C(=O)N[C@@H](CCCNC(=N)N)C(=O)N[C@@H](CCCCN)C(=O)N[C@@H]([C@@H](C)O)C(=O)N2)NC(=O)[C@H](CCCNC(=N)N)NC(=O)[C@H](CO)NC(=O)[C@H](Cc2cccc3ccccc23)NC(=O)[C@@H]2CCCN2C(=O)[C@H]([C@@H](C)CC)NC(=O)[C@H]([C@@H](C)O)NC(=O)[C@H](CC(=O)O)NC1=O [[1-Nal9]ShK]
IC50 [1]: 0.367 nM

[1-Nal14]ShK (RSCIDTIPKSRCTXFQCKHSMKYRLSFCRKTCGTC; non-natural residues)
IC50 [2, 4]: 0.11 nM

CC[C@H](C)[C@@H]1NC(=O)[C@@H](NC(=O)[C@H](CO)NC(=O)[C@@H](N)CCCNC(=N)N)CSSC[C@@H](C(=O)O)NC(=O)[C@H]([C@@H](C)O)NC(=O)CNC(=O)[C@@H]2CSSC[C@@H]3NC(=O)[C@H](CCC(N)=O)NC(=O)[C@H](Cc4ccccc4)NC(=O)[C@H](C)NC(=O)[C@H]([C@@H](C)O)NC(=O)[C@H](CSSC[C@H](NC(=O)[C@H](Cc4ccccc4)NC(=O)[C@H](CO)NC(=O)[C@H](CC(C)C)NC(=O)[C@H](CCCCN)NC(=O)[C@H](Cc4ccc(O)cc4)NC(=O)[C@H](CCCCN)NC(=O)[C@H](CCSC)NC(=O)[C@H](CO)NC(=O)[C@H](Cc4c[nH]cn4)NC(=O)[C@H](CCCCN)NC3=O)C(=O)N[C@@H](CCCNC(=N)N)C(=O)N[C@@H](CCCCN)C(=O)N[C@@H]([C@@H](C)O)C(=O)N2)NC(=O)[C@H](CCCNC(=N)N)NC(=O)[C@H](CO)NC(=O)[C@H](CCCCN)NC(=O)[C@@H]2CCCN2C(=O)[C@H]([C@@H](C)CC)NC(=O)[C@H]([C@@H](C)O)NC(=O)[C@H](CC(=O)O)NC1=O [[Lys24]ShK]
IC50 [1]: 0.044 nM

CC[C@H](C)[C@@H]1NC(=O)[C@@H](NC(=O)[C@H](CO)NC(=O)[C@@H](N)CCCNC(=N)N)CSSC[C@@H](C(=O)O)NC(=O)[C@H]([C@@H](C)O)NC(=O)CNC(=O)[C@@H]2CSSC[C@@H]3NC(=O)[C@H](CCC(N)=O)NC(=O)[C@H](Cc4ccccc4)NC(=O)[C@H](C)NC(=O)[C@H]([C@@H](C)O)NC(=O)[C@H](CSSC[C@H](NC(=O)[C@H](Cc4ccccc4)NC(=O)[C@H](CO)NC(=O)[C@H](CC(C)C)NC(=O)[C@H](CCCNC(=N)N)NC(=O)[C@H](CCC(=O)O)NC(=O)[C@H](CCCCN)NC(=O)[C@H](CCSC)NC(=O)[C@H](CO)NC(=O)[C@H](Cc4c[nH]cn4)NC(=O)[C@H](CCCCN)NC3=O)C(=O)N[C@@H](CCCNC(=N)N)C(=O)N[C@@H](CCCCN)C(=O)N[C@@H]([C@@H](C)O)C(=O)N2)NC(=O)[C@H](CCCNC(=N)N)NC(=O)[C@H](CO)NC(=O)[C@H](CCCCN)NC(=O)[C@@H]2CCCN2C(=O)[C@H]([C@@H](C)CC)NC(=O)[C@H]([C@@H](C)O)NC(=O)[C@H](CC(=O)O)NC1=O [[Glu23]ShK]
IC50 [2, 3]: 100 nM

CC[C@H](C)[C@@H]1NC(=O)[C@@H](NC(=O)[C@H](CO)NC(=O)[C@@H](N)CCCNC(=N)N)CSSC[C@@H](C(=O)O)NC(=O)[C@H]([C@@H](C)O)NC(=O)CNC(=O)[C@@H]2CSSC[C@@H]3NC(=O)[C@H](CCC(N)=O)NC(=O)[C@H](Cc4ccccc4)NC(=O)[C@H](C)NC(=O)[C@H]([C@@H](C)O)NC(=O)[C@H](CSSC[C@H](NC(=O)[C@H](Cc4ccccc4)NC(=O)[C@H](CO)NC(=O)[C@H](CC(C)C)NC(=O)[C@H](CCCNC(=N)N)NC(=O)[C@H](Cc4ccc(O)cc4)NC(=O)[C@H](CCC(=O)O)NC(=O)[C@H](CCSC)NC(=O)[C@H](CO)NC(=O)[C@H](Cc4c[nH]cn4)NC(=O)[C@H](CCCCN)NC3=O)C(=O)N[C@@H](CCCNC(=N)N)C(=O)N[C@@H](CCCCN)C(=O)N[C@@H]([C@@H](C)O)C(=O)N2)NC(=O)[C@H](CCCNC(=N)N)NC(=O)[C@H](CO)NC(=O)[C@H](CCCCN)NC(=O)[C@@H]2CCCN2C(=O)[C@H]([C@@H](C)CC)NC(=O)[C@H]([C@@H](C)O)NC(=O)[C@H](CC(=O)O)NC1=O [[Glu22]ShK]
IC50 [2, 3]: 100 nM

CC[C@H](C)[C@@H]1NC(=O)[C@@H](NC(=O)[C@H](CO)NC(=O)[C@@H](N)CCCNC(=N)N)CSSC[C@@H](C(=O)O)NC(=O)[C@H]([C@@H](C)O)NC(=O)[C@H](CCC(=O)O)NC(=O)[C@@H]2CSSC[C@@H]3NC(=O)[C@H](CCC(N)=O)NC(=O)[C@H](Cc4ccccc4)NC(=O)[C@H](C)NC(=O)[C@H]([C@@H](C)O)NC(=O)[C@H](CSSC[C@H](NC(=O)[C@H](Cc4ccccc4)NC(=O)[C@H](CO)NC(=O)[C@H](CC(C)C)NC(=O)[C@H](CCCNC(=N)N)NC(=O)[C@H](Cc4ccc(O)cc4)NC(=O)[C@H](CCCCN)NC(=O)[C@H](CCSC)NC(=O)[C@H](CO)NC(=O)[C@H](Cc4c[nH]cn4)NC(=O)[C@H](CCCCN)NC3=O)C(=O)N[C@@H](CCCNC(=N)N)C(=O)N[C@@H](CCCCN)C(=O)N[C@@H]([C@@H](C)O)C(=O)N2)NC(=O)[C@H](CCCNC(=N)N)NC(=O)[C@H](CO)NC(=O)[C@H](CCCCN)NC(=O)[C@@H]2CCCN2C(=O)[C@H]([C@@H](C)CC)NC(=O)[C@H]([C@@H](C)O)NC(=O)[C@H](CC(=O)O)NC1=O [[Glu33]ShK]
IC50 [1]: 0.054 nM

CC[C@H](C)[C@@H]1NC(=O)[C@@H](NC(=O)[C@H](CO)NC(=O)[C@@H](N)CCCNC(=N)N)CSSC[C@@H](C(=O)O)NC(=O)[C@H]([C@@H](C)O)NC(=O)CNC(=O)[C@@H]2CSSC[C@@H]3NC(=O)[C@H](CCC(N)=O)NC(=O)[C@H](Cc4ccccc4)NC(=O)[C@H](C)NC(=O)[C@H]([C@@H](C)O)NC(=O)[C@H](CSSC[C@H](NC(=O)[C@H](Cc4ccccc4)NC(=O)[C@H](CO)NC(=O)[C@H](CC(C)C)NC(=O)[C@H](CCCNC(=N)N)NC(=O)[C@H](Cc4ccc(O)cc4)NC(=O)[C@H](CCCCN)NC(=O)[C@H](CCSC)NC(=O)[C@H](CO)NC(=O)[C@H](Cc4c[nH]cn4)NC(=O)[C@H](CCCCN)NC3=O)C(=O)N[C@@H](CCCNC(=N)N)C(=O)N[C@@H](CCCCN)C(=O)N[C@@H]([C@@H](C)O)C(=O)N2)NC(=O)[C@H](CCCNC(=N)N)NC(=O)[C@H](CO)NC(=O)[C@H](CCCCN)NC(=O)[C@H](CCCCN)NC(=O)[C@H]([C@@H](C)CC)NC(=O)[C@H]([C@@H](C)O)NC(=O)[C@H](CC(=O)O)NC1=O [[Lys8]ShK]
IC50 [2, 4]: 0.974 nM

CC[C@H](C)[C@@H]1NC(=O)[C@@H](NC(=O)[C@H](CO)NC(=O)[C@@H](N)CCCNC(=N)N)CSSC[C@@H](C(N)=O)NC(=O)[C@H]([C@@H](C)O)NC(=O)CNC(=O)[C@@H]2CSSC[C@@H]3NC(=O)[C@H](CCCCN)NC(=O)[C@H](Cc4ccccc4)NC(=O)[C@H](C)NC(=O)[C@H]([C@@H](C)O)NC(=O)[C@H](CSSC[C@H](NC(=O)[C@H](Cc4ccccc4)NC(=O)[C@H](CO)NC(=O)[C@H](CC(C)C)NC(=O)[C@H](CCCNC(=N)N)NC(=O)[C@H](Cc4ccc(O)cc4)NC(=O)[C@H](CCCCN)NC(=O)[C@H](CCSC)NC(=O)[C@H](CO)NC(=O)[C@H](Cc4c[nH]cn4)NC(=O)[C@H](CCCCN)NC3=O)C(=O)N[C@@H](CCCNC(=N)N)C(=O)N[C@@H](CCCCN)C(=O)N[C@@H]([C@@H](C)O)C(=O)N2)NC(=O)[C@H](CCCNC(=N)N)NC(=O)[C@H](CO)NC(=O)[C@H](CCCCN)NC(=O)[C@@H]2CCCN2C(=O)[C@H]([C@@H](C)CC)NC(=O)[C@H]([C@@H](C)O)NC(=O)[C@H](CC(=O)O)NC1=O [[Lys16]ShK-amide]
pIC50 ([1]; read-out: WB (IL-2) IC50): 10.00
